Laboratory results reported in article PMC10602174, “Simultaneous Inhibition of PI3K and PAK in Preclinical Models of Neurofibromatosis Type 2-related Schwannomatosis” (Research Square, 2023).

Tests used:
[1] = test system: human MD-SCs; assay: Cell viability of MD-SC lines, monotherapy EC50 and combination synergy; format: cell-based
Protocol: (§1) Drugs used in this study are listed with their targets in Table S1. All drugs were obtained from SelleckChem (Houston, TX, USA), apart from (−)-B-Hydrastine (Santa Cruz Biotechnology, Dallas, TX, USA). Drugs were dissolved in DMSO (10 mM stock). MD-SCs were seeded in 384-well CellBind Corning plates at 1000 cells/well in phenol red-free media. After attachment, cells were treated with drugs at 10 concentrations in a 10×10 matrix. Mouse cells were treated for 48h and human cells for 72h prior to assessment of cell viability with CellTiter-Fluor Assay (Promega, Madison, WI, USA). All drugs were tested in at least two human MD-SC lines. Follow up testing was performed on a subset of combinations using the mouse MD-SC line. Matrix combination data was uploaded into the Combenefit software system to assess drug synergy using three methods (Loewe, Bliss, and HSA)([18]).

[2] = test system: HS01 cells; assay: Incucyte live cell imaging, confluence and cleaved caspase 3/7; format: cell-based, human; settings: HS01, 72h time course
Protocol: (§2) Human HS11, HS01, HS02, HS13 and HS05 and mouse MTC-10 cells (1,000 cells/well) were seeded in growth medium in three replicate wells/condition of a 384-well CellBIND Corning plate. […] Wells were imaged using the Incucyte® S5 Live-Cell Analysis system (Sartorius) for 24–72h. Phase and green fluorescent images were collected every 2h and analyzed using the integrated basic analyzer software.

[3] = test system: HS01 cells (human MD-SC); assay: Cell viability (CellTiter-Fluor) and Combenefit synergy, 10x10 matrix; format: cell-based; settings: HS01 72h, read-out: % Control cell viability; for viability at 0.03906 µM: single drug 39.06 nM; for viability at 0.07813 µM: single drug 78.13 nM; for viability at 0.15625 µM: single drug 156.25 nM; for viability at 0.3125 µM: single drug 312.5 nM; for viability at 0.625 µM: single drug 625 nM; for viability at 1.25 µM: single drug 1250 nM; for viability at 2.5 µM: single drug 2500 nM; for viability at 5 µM: single drug 5000 nM; for viability at 10 µM: single drug 10000 nM
Protocol: as §1

[4] = test system: MS01 cells (mouse MD-SC); assay: as above; format: cell-based; settings: MS01 48h, read-out: % Control cell viability; for viability at 0.03906 µM: single drug 39.06 nM; for viability at 0.07813 µM: single drug 78.13 nM; for viability at 0.15625 µM: single drug 156.25 nM; for viability at 0.3125 µM: single drug 312.5 nM; for viability at 0.625 µM: single drug 625 nM; for viability at 1.25 µM: single drug 1250 nM; for viability at 2.5 µM: single drug 2500 nM; for viability at 5 µM: single drug 5000 nM; for viability at 10 µM: single drug 10000 nM
Protocol: as §1

[5] = test system: HS03 cells (human MD-SC); assay: as above; format: cell-based; settings: HS03 72h, read-out: % Control cell viability; for viability at 0.03906 µM: single drug 39.06 nM; for viability at 0.07813 µM: single drug 78.13 nM; for viability at 0.15625 µM: single drug 156.25 nM; for viability at 0.3125 µM: single drug 312.5 nM; for viability at 0.625 µM: single drug 625 nM; for viability at 1.25 µM: single drug 1250 nM; for viability at 2.5 µM: single drug 2500 nM; for viability at 5 µM: single drug 5000 nM; for viability at 10 µM: single drug 10000 nM
Protocol: as §1

[6] = Pharmacokinetic study, plasma and sciatic nerve after single oral gavage; format: in vivo, NSG mice; settings: for Tmax: both sexes, NOD.Cg-Prkdcscid Il2rgtm1Wjl/SzJ (NSG), mouse, plasma, po, read-out: time of maximum plasma concentration; for penetration of blood-nerve barrier / detection in intact nerve: single oral gavage
Description: The UCF animal facility is accredited by the Association for Assessment and Accreditation of Laboratory Animal Care. A total of 50 six- to eight-week-old mice were used for pharmacokinetic studies. […] Drugs were delivered via 0.5% methylcellulose, 0.2% Tween 80, 10% DMSO vehicle. Ten mice (three per drug and one control receiving vehicle alone) were used at each time point. Collected samples were frozen and sent to Cyprotex (Watertown, MA, USA) for LC-MS/MS quantitation of drug levels. Pharmacokinetic calculations were performed using the PKSolver software. The plasma half-life (t½) was calculated as the time required to reduce by half the plasma concentration after reaching pseudo-equilibrium and is not the time required to eliminate half the administered dose. An additional LC-MS/MS analyses of a subset of the treated mice (see below) was conducted. […] Three mice from each treatment group were selected randomly at the end of the in vivo study to assess the levels of drug in plasma, intact control nerve, and tumor. Samples were collected 4h after the final oral gavage, frozen, and sent to Cyprotex for analysis.

[7] = Drug levels in plasma, control nerve and tumor at end of in vivo study; set-up: species or system NSG mice; settings: 4h after final oral gavage, 14 days of daily treatment
Description: Male and female NOD.Cg-Prkdcscid Il2rgtm1Wjl/SzJ (NSG) mice were bred in house and all care and use was approved by the University of Central Florida (UCF) Institutional Animal Care and Usage Committee (IACUC; #19 – 05, approved 04/08/2019). The UCF animal facility is accredited by the Association for Assessment and Accreditation of Laboratory Animal Care. A total of 50 six- to eight-week-old mice were used for pharmacokinetic studies. […] Drugs were delivered via 0.5% methylcellulose, 0.2% Tween 80, 10% DMSO vehicle. Ten mice (three per drug and one control receiving vehicle alone) were used at each time point. Collected samples were frozen and sent to Cyprotex (Watertown, MA, USA) for LC-MS/MS quantitation of drug levels. Pharmacokinetic calculations were performed using the PKSolver software. The plasma half-life (t½) was calculated as the time required to reduce by half the plasma concentration after reaching pseudo-equilibrium and is not the time required to eliminate half the administered dose. An additional LC-MS/MS analyses of a subset of the treated mice (see below) was conducted. This was done to determine whether PF-3758309 was accessible to the tumor neo-vasculature that can differ from that of the organ/tissue housing the tumor. […]

[8] = test system: MS01-Luc allografts (mouse MD-SCs); assay: Immunohistochemistry of allograft tumors; format: in vivo, NSG mice; settings: tumors after 14 days of treatment, n = 4/group
[9] = test system: patients with advanced solid tumors; settings: pictilisib combined with the MEK inhibitor cobimetinib; cited from earlier work
[10] = test system: luminal B breast cancer; settings: adding pictilisib to anastrozole; cited from earlier work
[11] = test system: HS02 cells; assay: Proteome Profiler Human Apoptosis Array; format: cell-based; settings: HS02, pictilisib 2.5 μM 6h vs vehicle
Protocol: (§3) Human HS02 MD-SCs and mouse MTC-10 (MS01) MD-SCs cell lines were used. […] Cells were lysed and procedure was performed according to the Proteome Profiler Human or Mouse Apoptosis Array Kit (Cat No: ARY009 for Human, Cat No: ARY031 for Mouse, Biotechne, Minneapolis, MA, USA). Arrays were visualized using the Jess System (Biotechne), densitometry was measured and normalized to reference spots using ImageJ Software (NIH, Bethesda, MD, USA). Calculations were carried out using Prism 9 Software (GraphPad, Boston, MA, USA).

[12] = test system: patients with advanced solid tumors; settings: phase 1, advanced solid tumors; cited from earlier work
[13] = test system: MS01 cells; assay: Proteome Profiler Mouse Apoptosis Array; format: cell-based; settings: MS01, pictilisib 2.5 μM 6h vs vehicle
Protocol: as §3

[14] = test system: ovarian cancer xenografts; set-up: method as in PMID 19584227; settings: cited from earlier work
[15] = test system: estrogen receptor positive breast cancer patients; settings: addition of pictilisib to fulvestrant; cited from earlier work
[16] = test system: human MD-SCs (HS02, HS05); settings: human MD-SC lines, Incucyte
Protocol: as §2

[17] = test system: glioblastoma xenografts; set-up: method as in PMID 19584227; settings: cited from earlier work
[18] = test system: mouse MD-SCs (MS01); assay: Incucyte confluency and CC-3/7 assay; format: cell-based

## COc1ncc(-c2ccc3nccc(-c4ccnnc4)c3c2)cc1NS(=O)(=O)c1ccc(F)cc1F [omipalisib]
[1]
  EC50: 2 nM

## COc1ccc(-c2nc(N3CCOCC3)c3sc(CN(C)c4ncc(C(=O)NO)cn4)cc3n2)cn1 [CUDC907]
[2]
  cleaved caspase 3/7 (CC3/7) signal: high CC-3/7 signal starting at 14h

## Cc1nc(Nc2n[nH]c3c2CN(C(=O)N[C@H](CN(C)C)c2ccccc2)C3(C)C)c2sccc2n1 [PF-3758309]
[3]
  viability at 0.03906 µM: 71%
  viability at 0.07813 µM: 66%
  viability at 0.15625 µM: 67%
  viability at 0.3125 µM: 65%
  viability at 0.625 µM: 65%
  viability at 1.25 µM: 67%
  viability at 2.5 µM: 59%
  viability at 5 µM: 40%
  viability at 10 µM: 21%
[4]
  viability at 0.03906 µM: 61%
  viability at 0.07813 µM: 57%
  viability at 0.15625 µM: 50%
  viability at 0.3125 µM: 48%
  viability at 0.625 µM: 43%
  viability at 1.25 µM: 40%
  viability at 2.5 µM: 35%
  viability at 5 µM: 24%
  viability at 10 µM: 7%
[5]
  viability at 0.03906 µM: 72%
  viability at 0.07813 µM: 67%
  viability at 0.15625 µM: 63%
  viability at 0.3125 µM: 64%
  viability at 0.625 µM: 62%
  viability at 1.25 µM: 59%
  viability at 2.5 µM: 56%
  viability at 5 µM: 44%
  viability at 10 µM: 23%
[6]; PF-3758309 25 mg/kg oral
  half-life in plasma, together with pictilisib versus alone: similar
[6]; PF-3758309 25 mg/kg oral, alone
  maximum concentration in plasma: 110 ng/mL
[6]; PF-3758309 25 mg/kg oral, co-administered with pictilisib 75 mg/kg
  maximum concentration in plasma: 341 ng/mL
[6]
  Tmax: 2 h
[6]; co-administered with pictilisib
  detection in normal nerve: remained undetected in normal nerve
[6]; single agent
  penetration of blood-nerve barrier / detection in intact nerve: not detected in the intact nerve
[7]
  drug in tumor: bioavailable in the tumor
[8]
  Ki67 staining (cell proliferation): significantly decreased cell proliferation
  YAP staining reduction: statistically significant

## CS(=O)(=O)N1CCN(Cc2cc3nc(-c4cccc5[nH]ncc45)nc(N4CCOCC4)c3s2)CC1 [Pictilisib]
[9]
  tolerability and efficacy: limited tolerability and efficacy
[10]
  suppression of tumor cell proliferation: significantly increased suppression of tumor cell proliferation
[11]
  CC-3, Bcl-2 and Bcl-x protein levels: no difference
  XIAP protein level: significant increase
[12]
  tolerability: well tolerated
[3]
  viability at 0.03906 µM: 88%
  viability at 0.07813 µM: 85%
  viability at 0.15625 µM: 78%
  viability at 0.3125 µM: 72%
  viability at 0.625 µM: 72%
  viability at 1.25 µM: 66%
  viability at 2.5 µM: 66%
  viability at 5 µM: 64%
  viability at 10 µM: 65%
[4]
  viability at 0.03906 µM: 81%
  viability at 0.07813 µM: 78%
  viability at 0.15625 µM: 70%
  viability at 0.3125 µM: 65%
  viability at 0.625 µM: 65%
  viability at 1.25 µM: 54%
  viability at 2.5 µM: 53%
  viability at 5 µM: 50%
  viability at 10 µM: 55%
[5]
  viability at 0.03906 µM: 93%
  viability at 0.07813 µM: 97%
  viability at 0.15625 µM: 94%
  viability at 0.3125 µM: 89%
  viability at 0.625 µM: 86%
  viability at 1.25 µM: 79%
  viability at 2.5 µM: 68%
  viability at 5 µM: 72%
  viability at 10 µM: 77%
[6]
  Tmax: 1 h
[6]; single agent
  penetration of blood-nerve barrier / detection in intact nerve: penetrated the normal blood-nerve barrier
[6]; single agent, single oral gavage 75 mg/kg
  time of maximum nerve concentration: 1 h
[13]
  CC-3 protein level: significant increase
  anti-apoptotic proteins Bcl-2, Bcl-x and XIAP: significant decrease
[14]
  growth inhibition: 80%
[15]
  dose-limiting toxicity: limited by toxicity
  progression-free survival: did not significantly improve progression-free survival
[16]
  confluency: significantly reduced confluency
[17]
  growth inhibition: 98%
[18]
  CC-3/7 signal: high CC-3/7 signal
  confluency: low confluency
